Source: publication PMC5061557 (Structure (London, England : 1993), 2016)

Legend:
[1] = molecular target: WTHslU (Escherichia coli, UniProt P0A6H5); assay: NADH-coupled ATPase assay; type: biochemical; details: 5 mM ATP, pH 7.5, 20 mM MgCl2, 37 °C, without HslV
[2] = molecular target: the molecule itself; assay: crystal structure

Sequence of WTHslU (P0A6H5 whole entry): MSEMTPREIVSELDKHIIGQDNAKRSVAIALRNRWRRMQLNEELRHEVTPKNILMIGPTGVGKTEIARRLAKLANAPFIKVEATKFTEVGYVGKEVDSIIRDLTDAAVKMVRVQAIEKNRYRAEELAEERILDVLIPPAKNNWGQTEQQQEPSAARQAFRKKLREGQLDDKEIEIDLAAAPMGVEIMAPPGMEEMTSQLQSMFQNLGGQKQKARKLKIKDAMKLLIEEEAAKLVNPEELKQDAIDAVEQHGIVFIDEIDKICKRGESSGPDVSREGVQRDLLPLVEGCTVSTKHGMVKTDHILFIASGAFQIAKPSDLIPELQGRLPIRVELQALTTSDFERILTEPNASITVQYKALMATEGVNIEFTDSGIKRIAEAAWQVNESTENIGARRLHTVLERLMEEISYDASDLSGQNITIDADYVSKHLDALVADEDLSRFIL

| Molecule | NADH-coupled ATPase assay [1] | stoichiometry N [2] |
| --- | --- | --- |
| Nc1ncnc2c1ncn2[C@@H]1O[C@H](COP(=O)(O)OP(=O)(O)OP(=O)(O)O)[C@@H](O)[C@H]1O [ATP] | assayed rates of ATP hydrolysis for this enzyme and wild type | – |
| E. coli L199Q HslU mutant with an N-terminal H6 tag (enzyme, UniProt P0A6H5 1-443, looked up) MSEMTPREIVSELDKHIIGQDNAKRSVAIALRNRWRRMQLNEELRHEVTPKNILMIGPTGVGKTEIARRLAKLANAPFIKVEATKFTEVGYVGKEVDSIIRDLTDAAVKMVRVQAIEKNRYRAEELAEERILDVLIPPAKNNWGQTEQQQEPSAARQAFRKKLREGQLDDKEIEIDLAAAPMGVEIMAPPGMEEMTSQQQSMFQNLGGQKQKARKLKIKDAMKLLIEEEAAKLVNPEELKQDAIDAVEQHGIVFIDEIDKICKRGESSGPDVSREGVQRDLLPLVEGCTVSTKHGMVKTDHILFIASGAFQIAKPSDLIPELQGRLPIRVELQALTTSDFERILTEPNASITVQYKALMATEGVNIEFTDSGIKRIAEAAWQVNESTENIGARRLHTVLERLMEEISYDASDLSGQNITIDADYVSKHLDALVADEDLSRFIL | – | 6 |
